According to US8552002B2 (Novartis AG, priority 2004, dated 2013):

Legend:
Format in all cases: biochemical
[1] = molecular target: T1, FGFR3 (K650E) (Homo sapiens, UniProt P22607, K650E); assay: Recombinant GST-FGFR-3-K650E tyrosine kinase assay (33P into poly(Glu,Tyr)); details: 10 μM; Examples 1 to 169; read-out: FGFR3 (K650E) inhibition at 10 μM
T1 construct: amino acids 411-806 of the cytoplasmic domain of human FGFR-3, N-terminally fused to GST; made in house; host or cells: Sf9 insect cells (baculovirus)
T1 sequence (P22607 411-806 K650E): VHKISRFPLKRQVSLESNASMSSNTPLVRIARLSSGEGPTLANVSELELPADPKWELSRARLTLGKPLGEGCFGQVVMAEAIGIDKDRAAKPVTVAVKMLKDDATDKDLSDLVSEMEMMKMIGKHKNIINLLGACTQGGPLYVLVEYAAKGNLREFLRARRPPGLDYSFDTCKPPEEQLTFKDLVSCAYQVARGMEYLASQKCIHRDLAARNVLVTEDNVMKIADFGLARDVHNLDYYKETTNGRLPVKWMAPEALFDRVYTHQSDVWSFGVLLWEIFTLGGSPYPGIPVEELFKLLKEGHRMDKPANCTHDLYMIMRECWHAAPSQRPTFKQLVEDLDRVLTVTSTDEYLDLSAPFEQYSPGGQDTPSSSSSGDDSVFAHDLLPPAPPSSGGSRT

[2] = molecular target: T2, Tek (Homo sapiens, UniProt Q02763); assay: Recombinant GST-Tek (Tie-2) tyrosine kinase assay (33P into poly(Glu,Tyr)); details: Examples 1 to 169
T2 construct: amino acids 773-1124 of the cytoplasmic kinase domain of human Tek, N-terminally fused to GST; made in house; host or cells: Sf9 insect cells (baculovirus)
T2 sequence (Q02763 773-1124): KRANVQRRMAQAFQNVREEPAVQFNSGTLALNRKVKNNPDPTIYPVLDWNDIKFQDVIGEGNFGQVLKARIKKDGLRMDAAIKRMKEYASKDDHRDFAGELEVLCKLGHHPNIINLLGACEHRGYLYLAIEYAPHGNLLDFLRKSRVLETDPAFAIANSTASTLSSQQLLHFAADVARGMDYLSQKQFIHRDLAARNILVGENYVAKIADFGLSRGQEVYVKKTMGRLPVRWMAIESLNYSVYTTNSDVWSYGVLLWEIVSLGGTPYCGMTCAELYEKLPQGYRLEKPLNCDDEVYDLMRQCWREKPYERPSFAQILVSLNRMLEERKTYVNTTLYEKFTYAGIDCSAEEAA
Source text: (Tie-2/Tek): The baculovirus donor vector pFbacG01 was used to generate a recombinant baculovirus that expressed the amino acid region amino acids 773-1124 of the cytoplasmic kinase domain of human Tek, N-terminally fused to GST (Provided by Dr. Marmé, Institute of Molecular Medicine, Freiburg, Germany based on a Research Collaboration). Tek was recloned into the pFbacG01 transfer vector by EcoRI excision and ligation into EcoRI digested pFbacG01 (FBG-Tie2/Tek).
Production of virus: Transfer vectors containing the kinase domains were transfected into the DH10Bac cell line (GIBCO) and plated on selective agar plates. Colonies without insertion of the fusion sequence into the viral genome (carried by the bacteria) are blue. Single white colonies were picked and viral DNA (bacmid) isolated from the bacteria by standard plasmid purification procedures. Sf9 cells or Sf21 cells were then transfected in 25 cm^2 flasks with the viral DNA using Cellfectin reagent.
Determination of small scale protein expression in Sf9 cells: Virus containing media was collected from the transfected cell culture and used for infection to increase its titer. Virus containing media obtained after two rounds of infection was used for large-scale protein expression. For large-scale protein expression 100 cm^2 round tissue culture plates were seeded with 5×10^7 cells/plate and infected with 1 mL of virus-containing media (approx. 5 MOIs). After 3 days the cells were scraped off the plate and centrifuged at 500 rpm for 5 min. Cell pellets from 10-20, 100 cm^2 plates, were resuspended in 50 mL of ice-cold lysis buffer (25 mMTris-HCl, pH7.5, 2 mMEDTA, 1% NP-40, 1 mM DTT, 1 mMP MSF). The cells were stirred on ice for 15 min and then centrifuged at 5000 rpms for 20 min.
Purification of GST-tagged proteins: The centrifuged cell lysate was loaded onto a 2 mL glutathione-sepharose column and washed three times with 10 mL of 25 mM Tris-HCl, pH 7.5, 2 mM EDTA, 1 mM DTT, 200 mM NaCl. The GST-tagged proteins were then eluted by 10 applications (1 mL each) of 25 mM Tris-HCl, pH 7.5, 10 mM reduced-glutathione, 100 mM NaCl, 1 mM DTT, 10% Glycerol and stored at −70° C.
Measure of enzyme activity: Tyrosine protein kinase assays with either purified GST-Ret, GST-Tek or GST-FGFR-3-K650E were carried out in a final volume of 30 μL with final concentrations of the following components: Ret included 15 ng of GST-Ret, 20 mM Tris-HCl, pH 7.5, 1 mM MnCl2, 10 mM MgCl2, 1 mM DTT, 3 μg/mL poly(Glu,Tyr) 4:1, 1% DMSO and 2.0 μM ATP (γ-[^33P]-ATP 0.1 μCi). Tek included 150 ng of GST-Tek, 20 mM Tris-HCl, pH 7.5, 3 mM MnCl2, 3 mM MgCl2, 1 mM DTT, 0.01 mM Na3VO4, 250 μg/mL PEG 20'000, 10 μg/mL poly(Glu,Tyr) 4:1, 1% DMSO and 4.0 μM ATP (γ-[^33P]-ATP 0.1 μCi). FGFR-3-K650E included 10 ng of GST-FGFR-3-K650E, 20 mM Tris-HCl, pH 7.5, 3 mM MnCl2, 3 mM MgCl2, 1 mM DTT, […], 10 μg/mL poly(Glu,Tyr) 4:1, 1% DMSO and 4.0 μM ATP (γ-[^33P]-ATP 0.1 μCi).The activity was assayed in the presence or absence of inhibitors, by measuring the incorporation of ^33P from [γ^33P] ATP into poly(Glu,Tyr) 4:1. The assay was carried out in 96-well plates at ambient temperature for 30 min under conditions described below and terminated by the addition of 50 μL of 125 mM EDTA. Subsequently, 60 μL of the reaction mixture were transferred onto Immobilon-PVDF membrane (Millipore) previously soaked for 5 min with methanol, rinsed with water, then soaked for 5 min with 0.5% H3PO4 and mounted on vacuum manifold with disconnected vacuum source. After spotting all samples, vacuum was connected and each well rinsed with 200 μL 0.5% H3PO4. Membranes were removed and washed 4× on a shaker with 1.0% H3PO4, once with ethanol. Membranes were counted after drying at ambient temperature, mounting in Packard TopCount 96-well frame, and addition of 10 μL/well of Microscint™ (Packard). […]

[3] = molecular target: T3, KDR (Homo sapiens, UniProt P35968); assay: Inhibitory activity against KDR (VEGF-R2), in vitro data of Examples 170 and 207; details: 10 μM; Examples 1 to 169; read-out: KDR inhibition at 10 μM
T3 construct: expressed in transfected cells; host or cells: CHO cells
T3 sequence (P35968 20-1356): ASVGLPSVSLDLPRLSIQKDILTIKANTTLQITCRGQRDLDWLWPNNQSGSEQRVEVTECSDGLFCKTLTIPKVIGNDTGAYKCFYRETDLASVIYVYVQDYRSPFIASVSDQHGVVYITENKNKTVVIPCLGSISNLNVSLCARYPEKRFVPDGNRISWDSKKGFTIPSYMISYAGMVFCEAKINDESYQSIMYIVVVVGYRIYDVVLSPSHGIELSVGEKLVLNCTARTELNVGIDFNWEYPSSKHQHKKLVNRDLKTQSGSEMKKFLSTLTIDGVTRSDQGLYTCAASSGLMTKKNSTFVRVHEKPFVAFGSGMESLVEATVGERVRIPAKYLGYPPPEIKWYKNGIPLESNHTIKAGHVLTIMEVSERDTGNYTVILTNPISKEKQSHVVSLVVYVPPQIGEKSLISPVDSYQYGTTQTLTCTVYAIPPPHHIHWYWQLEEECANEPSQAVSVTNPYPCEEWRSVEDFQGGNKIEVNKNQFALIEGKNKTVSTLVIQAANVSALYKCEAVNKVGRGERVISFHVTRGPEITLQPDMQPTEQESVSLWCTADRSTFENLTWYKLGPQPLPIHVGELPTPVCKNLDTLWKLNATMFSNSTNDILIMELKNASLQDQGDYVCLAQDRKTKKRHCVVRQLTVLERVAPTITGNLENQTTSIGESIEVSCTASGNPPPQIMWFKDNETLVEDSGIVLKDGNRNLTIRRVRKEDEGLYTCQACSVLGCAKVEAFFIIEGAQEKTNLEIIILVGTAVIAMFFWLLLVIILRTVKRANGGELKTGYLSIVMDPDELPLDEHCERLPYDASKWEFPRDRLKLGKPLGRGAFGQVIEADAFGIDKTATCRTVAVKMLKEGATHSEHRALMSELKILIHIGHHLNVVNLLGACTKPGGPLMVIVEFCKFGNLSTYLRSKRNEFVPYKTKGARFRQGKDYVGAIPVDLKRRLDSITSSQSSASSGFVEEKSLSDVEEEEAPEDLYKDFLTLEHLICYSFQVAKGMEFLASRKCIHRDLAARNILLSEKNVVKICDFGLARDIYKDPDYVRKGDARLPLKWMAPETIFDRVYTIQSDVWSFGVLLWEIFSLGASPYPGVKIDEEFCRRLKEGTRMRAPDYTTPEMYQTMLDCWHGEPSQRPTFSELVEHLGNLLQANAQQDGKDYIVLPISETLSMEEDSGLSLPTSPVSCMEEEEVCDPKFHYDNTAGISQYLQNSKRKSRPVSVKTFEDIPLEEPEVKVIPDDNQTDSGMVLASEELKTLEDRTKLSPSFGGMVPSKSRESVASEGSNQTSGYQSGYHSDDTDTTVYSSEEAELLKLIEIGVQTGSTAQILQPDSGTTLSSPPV
Method: (Controls comprise medium without test compounds). After two hours of incubation at 37° C., recombinant VEGF is added; the final VEGF concentration is 20 ng/ml. After a further five minutes incubation at 37° C., the cells are washed twice with ice-cold PBS (phosphate-buffered saline) and immediately lysed in 100 μl lysis buffer per well. The lysates are then centrifuged to remove the cell nuclei, and the protein concentrations of the supernatants are determined using a commercial protein assay (BIORAD). The lysates can then either be immediately used or, if necessary, stored at −20° C. […] The plates are then washed and the remaining free protein-binding sites are saturated with 3% TopBlock® (Juro, Cat. # TB232010) in phosphate buffered saline with Tween 20® (polyoxyethylen(20)sorbitane monolaurate, ICI/Uniquema) (PBST). The cell lysates (20 μg protein per well) are then incubated in these plates overnight at 4° C. together with an antiphosphotyrosine antibody coupled with alkaline phosphatase (PY20:AP from Zymed). […] The luminescence is measured in a Packard Top Count Microplate Scintillation Counter.

Structure (SMILES)	inhibition at 10 µM [1] [%]	inhibition at 10 µM [2] [%]	inhibition at 10 µM [3] [%]
O=C(Nc1cc(Nc2ccc(OCCCN3CCOCC3)cc2)ncn1)Nc1ccccc1Br [Example 99, 1-(2-Bromo-phenyl)-3-{6-[4-(3-morpholin-4-yl-propoxy)-phenylamino]-pyrimidin-4-yl}-urea]	27 to 100	12 to 100	67 to 100
O=C(Nc1ccccc1)Nc1cc(Nc2cccc(Cl)c2)ncn1 [Example 141, 1-[6-(3-Chloro-phenylamino)-pyrimidin-4-yl]-3-phenyl-urea]	27 to 100	12 to 100	67 to 100
O=C(Nc1cccc(Cl)c1)Nc1cc(Nc2cccc(Cl)c2)ncn1 [Example 135, 1-(3-Chloro-phenyl)-3-[6-(3-chloro-phenylamino)-pyrimidin-4-yl]-urea]	27 to 100	12 to 100	67 to 100
O=C(Nc1cc(Nc2cccc(Cl)c2)ncn1)Nc1ccccc1F [Example 130, 1-[6-(3-Chloro-phenylamino)-pyrimidin-4-yl]-3-(2-fluoro-phenyl)-urea]	27 to 100	12 to 100	67 to 100
COc1ccc(NC(=O)Nc2cc(Nc3ccc(N4CCN(C)CC4)cc3)ncn2)c(OC)c1 [Example 16, 1-(2,4-Dimethoxy-phenyl)-3-{6-[4-(4-methyl-piperazin-1-yl)-phenyl-amino]-pyrimidin-4-yl}-urea]	27 to 100	12 to 100	67 to 100
COc1cc(OC)c(Cl)c(NC(=O)N(C)c2cc(Nc3cccc(N4CCN(C)CC4)c3)ncn2)c1Cl [Example 3, 3-(2,6-Dichloro-3,5-dimethoxy-phenyl)-1-methyl-1-{6-[3-(4-methyl-piperazin-1-yl)-phenylamino]-pyrimidin-4-yl}-urea]	–	12 to 100	67 to 100
CCN(C(=O)Nc1c(Cl)c(OC)cc(OC)c1Cl)c1cc(Nc2ccc(OC3CCN(C)CC3)cc2)ncn1 [Example 166, 3-(2,6-Dichloro-3,5-dimethoxy-phenyl)-1-ethyl-{6-[4-(1-methyl-piperidin-4-yloxy)-phenylamino]-pyrimidin-4-yl}-urea]	27 to 100	12 to 100	67 to 100
Cc1cccc(Cl)c1NC(=O)Nc1cc(Nc2ccc(N3CCN(C)CC3)cc2)ncn1 [Example 6, 1-(2-Chloro-6-methyl-Phenyl)-3-{6-[4-(4-methyl-piperazin-1-yl)-phenyl-amino]-pyrimidin-4-yl}-urea]	27 to 100	12 to 100	67 to 100
COc1cc(NC(=O)Nc2cc(Nc3cccc(OCCN(C)C)c3)ncn2)c(Cl)c(OC)c1 [Example 43, 1-(2-Chloro-3,5-dimethoxy-phenyl)-3-{6-[3-(2-dimethylamino-ethoxy)-phenylamino]-pyrimidin-4-yl}-urea]	27 to 100	12 to 100	67 to 100
COc1ccc(Cl)c(NC(=O)Nc2cc(Nc3ccc(N4CCN(C)CC4)cc3)ncn2)c1Cl [Example 36, 1-(2,6-Dichloro-3-methoxy-phenyl)-3-{6-[4-(4-methyl-piperazin-1-yl)-phenyl-amino]-pyrimidin-4-yl}-urea]	–	12 to 100	67 to 100
COc1cc(NC(=O)Nc2cc(Nc3ccc(N4CCN(C)CC4)cc3)ncn2)c(Cl)c(OC)c1 [Example 40, 1-(2-Chloro-3,5-dimethoxy-phenyl)-3-{6-[4-(4-methyl-Piperazin-1-yl)-phenyl-amino]-pyrimidin-4-yl}-urea]	–	12 to 100	67 to 100
CCN(C(=O)Nc1cc(OC)cc(OC)c1Cl)c1cc(Nc2ccc(N3CCN(C)CC3)cc2)ncn1 [Example 55, 3-(2-Chloro-3,5-dimethoxy-phenyl)-1-ethyl-1-{6-[4-(4-methyl-piperazin-1-yl)-phenylamino]-pyrimidin-4-yl}-urea]	–	12 to 100	67 to 100
COc1cc(OC)c(Cl)c(NC(=O)N(C)c2cc(Nc3ccc(CCCN(C)C)cc3)ncn2)c1Cl [Example 147, 3-(2,6-Dichloro-3,5-dimethoxy-phenyl)-1-{6-[4-(3-dimethylamino-propyl)-phenylamino]-pyrimidin-4-yl}-1-methyl-urea]	–	12 to 100	67 to 100
COc1cc(NC(=O)N(C)c2cc(Nc3ccc(N4CCN(C)CC4)cc3)ncn2)c(Cl)c(OC)c1 [Example 50, 3-(2-Chloro-3,5-dimethoxy-phenyl)-1-methyl-1-{6-[4-(4-methyl-piperazin-1-yl)-phenylamino]-pyrimidin-4-yl}-urea]	–	12 to 100	67 to 100
COc1cc(OC)c(Cl)c(NC(=O)N(C)c2cc(Nc3cccc(CN(C)C)c3)ncn2)c1Cl [Example 144, 3-(2,6-Dichloro-3,5-dimethoxy-phenyl)-1-[6-(3-dimethylaminomethyl-phenylamino)-pyrimidin-4-yl]-1-methyl-urea]	–	12 to 100	67 to 100
COc1cc(NC(=O)N(C)c2cc(Nc3ccc(N4CCN(C)CC4)cc3)ncn2)cc(OC)c1 [Example 47, 3-(3,5-Dimethoxy-phenyl)-1-methyl-1-{6-[4-(4-methyl-piperazin-1-yl)-phenylamino]-pyrimidin-4-yl}-urea]	–	12 to 100	67 to 100
COc1cc(OC)c(Cl)c(NC(=O)N(C)c2cc(Nc3ccc(OCCN4CCCC4)cc3)ncn2)c1Cl [Example 148, 3-(2,6-Dichloro-3,5-dimethoxy-phenyl)-1-methyl-1-{6-[4-(2-pyrrolidin-1-yl-ethoxy)-phenylamino]-pyrimidin-4-yl}-urea]	–	12 to 100	67 to 100
COc1ccc(Cl)c(NC(=O)Nc2cc(Nc3ccc(N4CCN(C)CC4)cc3)ncn2)c1 [Example 28, 1-(2-Chloro-5-methoxy-phenyl)-3-{6-[4-(4-methyl-piperazin-1-yl)-phenyl-amino]-pyrimidin-4-yl}-urea]	–	12 to 100	67 to 100
